According to patent US20250144092A1, “TREATMENT OF PSYCHIATRIC OR NEUROLOGICAL DISORDERS IN PATIENTS WITH PROMINENT ANHEDONIA USING IRDABISANT AS A MONOTHERAPY OR IN COMBINATION WITH AN ANTIPSYCHOTIC AGENT” (Alto Neuroscience, Inc., priority 2023, published 2025):
Where a name gives a salt, the structure may show the parent alone.

Key:
[1] = system: dopamine release in the nucleus accumbens; assay: in vivo microdialysis in freely moving rats, dopamine efflux in nucleus accumbens; details: for dopamine release in the nucleus accumbens: basal conditions, IP administration, monitored 210 minutes
Procedure: To determine whether irdabisant (or pharmaceutically acceptable salt thereof, such as irdabisant hydrochloride) leads to dopamine release in the nucleus accumbens under basal conditions similar to those in which pitolisant, ABT-239 and JNJ-39220675 were tested and found to have no effect, in vivo microdialysis was performed in freely moving rats. Dopamine levels were monitored for 210 minutes following compound administration. Irdabisant hydrochloride was administered intraperitoneally (IP) at 0.001, 0.01, 0.3 and 10 mg/kg for 30 minutes following an IP vehicle (0.5% methylcellulose and 0.2% Tween 80) injection.
Male Sprague-Dawley albino rats weighing 250 to 350 g were housed two per cage and maintained in a controlled 12:12-h light/dark cycle and under constant temperature at 22° C., with free access to food and water. Rats were anesthetized with the modified Equithesin mixture (see, e.g., Li et al., Neuropsychopharm., 30, 1986-1995, 2005) and mounted in a stereotaxic frame. Stainless guide cannula with a dummy probe were placed and fixed by cranioplastic cement onto the cortex dorsal both to the medial prefrontal cortex (mPFC) and the nucleus accumbens (NAC). Rats received dual probe implantation for the mPFC and NAC (coordinates: A+3.2, L+0.8 (10° C. inclination), V-5.5 mm and A+2.0, L+1.5 to +1.7, V-7.5 mm, respectively, relative to bregma). Three to five days after cannulation, a dialysis probe was implanted into the mPFC and NAC under slight anesthesia with isoflurane. Rats were then housed individually overnight in a dialysis cage and the probes perfused with Dulbecco's phosphate-buffered saline solution with calcium (Sigma, St. Louis, MO) (138 mM NaCl, 8.1 mM Na2HPO4, 2.7 mM KCl, 1.5 mM KH2PO4, 0.5 mM MgCl2, 1.2 mM CaCl2), pH 7.4) at a rate of 0.4 μL/min. On the day of the experiment, the flow was increased to 1.5 μL/min. Sample collection began one hour later, and samples were collected every 30 min. After 60 min of stable baseline, each rat was dosed twice (indicated by arrows in FIG. 1-4); a vehicle dose at t=0 min., followed 30 minutes later by a dose of irdabisant hydrochloride. Dopamine (DA) and acetylcholine (Ach) samples, measured in the absence of cholinesterase inhibition, were monitored with HPLC coupled to mass spectrometry.
Data are presented as percentages of baseline from baseline to 180 minutes after treatment. Mean baseline levels (i.e., an average of 60, 30, and 0 minutes before injection) of DA and ACh in the mPFC and NAC were designated as 100%. Non-transformed data were analyzed at each dose by assessing the change relative to the mean baseline using a one-way repeated measures ANOVA followed by a Bonferroni's post-hoc test as implemented in the SigmaPlot version 11.0.0.77 statistical package (Systat Software, Inc., San Jose CA).

[2] = cited from earlier work
[3] = oral, after dosing; cited from earlier work
[4] = system: dopamine release in the striatum/nucleus accumbens; details: striatal microdialysis, literature reports; cited from earlier work
[5] = system: dopamine release in the cortex; details: literature reports; cited from earlier work

## C[C@@H]1CCCN1CCCOc1ccc(-c2ccc(=O)[nH]n2)cc1 [irdabisant hydrochloride]
[1]; 0.01 mg/kg dose, 180 minutes post-dose, p=0.005, overall p<0.001
  elevation in dopamine levels relative to baseline: statistically significant elevation in dopamine levels
[1]; 0.3 mg/kg dose, 90 minute time point, p=0.02, overall p=0.003
  elevation in dopamine levels relative to baseline: significance
[1]; 10 mg/kg IP dose
  maximal effect on nucleus accumbens dopamine efflux: 205.6±6.86 % over basal
[1]; 10 mg/kg dose, 60, 90, 120 and 150 minute time points, overall p<0.001
  elevation in dopamine levels relative to baseline: significance was achieved
[1]; IP
  threshold dose for nucleus accumbens dopamine efflux: 0.01 mg/kg
[1]
  dopamine release in the nucleus accumbens: increased dopamine release was observed

## C[C@@H]1CCCN1CCCOc1ccc(-c2ccc(=O)[nH]n2)cc1 [irdabisant, 6-{4-[3-((R)-2-methyl-pyrrolidin-1-yl)-propoxy]-phenyl}-2H-pyridazin-3-one]
[2]; Baakman et al. 2019
  change over placebo on BL-VAS subscales: increasing scores on BL-VAS alertness and contentedness/mood subscales
[2]; healthy participants, after a single dose
  subjective experiences and cognitive effects: promote positive subjective experiences and cognitive effects
[1]
  dopamine release in the nucleus accumbens: increases dopamine release
[3]
  Tmax: approximately 5 hours

## Clc1ccc(CCCOCCCN2CCCCC2)cc1 [pitolisant]
[4]
  dopamine release in the nucleus accumbens: no increase in release of dopamine release

## O=C(c1ccc(Oc2ccc(F)cc2)nc1)N1CCCN(C2CCC2)CC1 [JNJ-39220675, (4-cyclobutyl-1,4-diazepan-1-yl) (6-(4-fluorophenoxy)pyridin3-yl) methanone]
[4]
  dopamine release in the nucleus accumbens: lack of effect on dopamine release

## C[C@@H]1CCCN1CCc1cc2cc(-c3ccc(C#N)cc3)ccc2o1 [ABT-239, (R)-4-(2-(2-(2-methyl-|-pyrrolidinyl)ethyl)-1-benzofuran-5-yl)benzonitrile]
[4]
  dopamine release in the nucleus accumbens: lack of effect on dopamine release

## C(#Cc1ccc(CN2CCOCC2)cc1)CCN1CCCCC1.Cl.Cl [JNJ-10181457]
[5]
  dopamine release in the cortex: do not
